# Test results reported in ChEMBL document CHEMBL5303573, “Mapping human microbiome drug metabolism by gut bacteria and their genes” (Nature, 2019).
# Biological target: T1, 3-oxo-5-alpha-steroid 4-dehydrogenase (Bacteroides thetaiotaomicron, UniProt Q8A618)
# T1 sequence (Q8A618 whole entry): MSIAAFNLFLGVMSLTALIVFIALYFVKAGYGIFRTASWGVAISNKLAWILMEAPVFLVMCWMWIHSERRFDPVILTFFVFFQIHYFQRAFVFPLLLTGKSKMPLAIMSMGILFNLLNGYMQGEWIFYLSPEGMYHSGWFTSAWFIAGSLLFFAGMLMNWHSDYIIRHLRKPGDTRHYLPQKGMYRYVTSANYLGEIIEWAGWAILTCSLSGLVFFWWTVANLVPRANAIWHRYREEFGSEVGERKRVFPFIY
# Assay: (§1) The drug is tested on Bacteroides thetaiotaomicron strain: VPI-5482 for biotransformation. The drug concentrations were measured before and after a 12-h incubation by liquid-chromatography-coupled mass spectrometry (LC–MS)
# Type: ADME
# Set-up: dose 2 uM
# Settings: 2 µM
row,Bacterial Biotransformation,Structure (SMILES)
1,Compound metabolized,C#C[C@]1(OC(C)=O)CC[C@H]2[C@@H]3CCC4=CC(=O)CC[C@@H]4[C@H]3CC[C@@]21C [NORETHINDRONE ACETATE]
2,Compound NOT metabolized,COc1ccc([C@@H]2Sc3ccccc3N(CCN(C)C)C(=O)[C@@H]2OC(C)=O)cc1 [DILTIAZEM]
3,Compound NOT metabolized,CC(=O)OCC(=O)[C@@]1(OC(C)=O)[C@@H](C)C[C@H]2[C@@H]3C[C@H](F)C4=CC(=O)C=C[C@]4(C)[C@@]3(F)[C@@H](O)C[C@@]21C [DIFLORASONE DIACETATE]

# Biological target: T2, Acyltransferase (Bacteroides thetaiotaomicron, UniProt Q8A575)
# T2 sequence (Q8A575 whole entry): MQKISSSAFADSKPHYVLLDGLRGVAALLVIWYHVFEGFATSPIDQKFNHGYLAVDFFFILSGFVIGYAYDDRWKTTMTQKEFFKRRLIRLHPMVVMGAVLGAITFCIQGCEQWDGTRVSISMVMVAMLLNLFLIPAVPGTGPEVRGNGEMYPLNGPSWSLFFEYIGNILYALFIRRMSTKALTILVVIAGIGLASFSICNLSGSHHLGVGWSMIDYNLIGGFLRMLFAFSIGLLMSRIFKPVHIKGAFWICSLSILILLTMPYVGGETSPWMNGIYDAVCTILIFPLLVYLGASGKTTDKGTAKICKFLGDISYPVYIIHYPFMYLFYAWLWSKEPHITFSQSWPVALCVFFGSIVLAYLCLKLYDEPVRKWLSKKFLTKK
# Assay: as §1
# Type: ADME
# Set-up: dose 2 uM
# Settings: 2 µM
row,Bacterial Biotransformation,Structure (SMILES)
1,Compound NOT metabolized,C#C[C@]1(OC(C)=O)CC[C@H]2[C@@H]3CCC4=CC(=O)CC[C@@H]4[C@H]3CC[C@@]21C [NORETHINDRONE ACETATE]
2,Compound NOT metabolized,COc1ccc([C@@H]2Sc3ccccc3N(CCN(C)C)C(=O)[C@@H]2OC(C)=O)cc1 [DILTIAZEM]
3,Compound NOT metabolized,CC(=O)OCC(=O)[C@@]1(OC(C)=O)[C@@H](C)C[C@H]2[C@@H]3C[C@H](F)C4=CC(=O)C=C[C@]4(C)[C@@]3(F)[C@@H](O)C[C@@]21C [DIFLORASONE DIACETATE]

# Biological target: T3, Endoglucanase E (EGE) (Bacteroides thetaiotaomicron, UniProt Q8AAL9)
# T3 sequence (Q8AAL9 whole entry): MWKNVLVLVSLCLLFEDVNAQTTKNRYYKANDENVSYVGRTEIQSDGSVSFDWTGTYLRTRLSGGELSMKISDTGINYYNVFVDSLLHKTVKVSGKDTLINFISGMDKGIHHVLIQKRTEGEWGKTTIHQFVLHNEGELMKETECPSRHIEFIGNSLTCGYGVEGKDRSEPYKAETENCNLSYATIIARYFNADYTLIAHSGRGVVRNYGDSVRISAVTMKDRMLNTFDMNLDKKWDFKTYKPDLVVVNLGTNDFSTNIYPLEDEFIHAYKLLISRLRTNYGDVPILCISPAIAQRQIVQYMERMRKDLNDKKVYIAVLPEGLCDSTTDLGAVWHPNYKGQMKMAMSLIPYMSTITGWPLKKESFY
# Assay: as §1
# Type: ADME
# Set-up: dose 2 uM
# Settings: 2 µM
row,Bacterial Biotransformation,Structure (SMILES)
1,Compound NOT metabolized,C#C[C@]1(OC(C)=O)CC[C@H]2[C@@H]3CCC4=CC(=O)CC[C@@H]4[C@H]3CC[C@@]21C [NORETHINDRONE ACETATE]
2,Compound NOT metabolized,COc1ccc([C@@H]2Sc3ccccc3N(CCN(C)C)C(=O)[C@@H]2OC(C)=O)cc1 [DILTIAZEM]
3,Compound NOT metabolized,CC(=O)OCC(=O)[C@@]1(OC(C)=O)[C@@H](C)C[C@H]2[C@@H]3C[C@H](F)C4=CC(=O)C=C[C@]4(C)[C@@]3(F)[C@@H](O)C[C@@]21C [DIFLORASONE DIACETATE]

# Biological target: General stress protein (Bacteroides thetaiotaomicron, UniProt Q8A7U5)
# Sequence (Q8A7U5 1-138, change not shown): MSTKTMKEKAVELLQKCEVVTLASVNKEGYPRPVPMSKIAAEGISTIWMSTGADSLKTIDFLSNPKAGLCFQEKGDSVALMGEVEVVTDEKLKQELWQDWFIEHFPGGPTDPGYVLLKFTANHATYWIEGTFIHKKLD
# Assay: as §1
# Type: ADME
# Set-up: dose 2 uM
# Settings: 2 µM
row,Bacterial Biotransformation,Structure (SMILES)
1,Compound NOT metabolized,C#C[C@]1(OC(C)=O)CC[C@H]2[C@@H]3CCC4=CC(=O)CC[C@@H]4[C@H]3CC[C@@]21C [NORETHINDRONE ACETATE]
2,Compound NOT metabolized,COc1ccc([C@@H]2Sc3ccccc3N(CCN(C)C)C(=O)[C@@H]2OC(C)=O)cc1 [DILTIAZEM]
3,Compound NOT metabolized,CC(=O)OCC(=O)[C@@]1(OC(C)=O)[C@@H](C)C[C@H]2[C@@H]3C[C@H](F)C4=CC(=O)C=C[C@]4(C)[C@@]3(F)[C@@H](O)C[C@@]21C [DIFLORASONE DIACETATE]

# Biological target: T4, Lipase (Bacteroides thetaiotaomicron, UniProt Q8A3J3)
# T4 sequence (Q8A3J3 whole entry): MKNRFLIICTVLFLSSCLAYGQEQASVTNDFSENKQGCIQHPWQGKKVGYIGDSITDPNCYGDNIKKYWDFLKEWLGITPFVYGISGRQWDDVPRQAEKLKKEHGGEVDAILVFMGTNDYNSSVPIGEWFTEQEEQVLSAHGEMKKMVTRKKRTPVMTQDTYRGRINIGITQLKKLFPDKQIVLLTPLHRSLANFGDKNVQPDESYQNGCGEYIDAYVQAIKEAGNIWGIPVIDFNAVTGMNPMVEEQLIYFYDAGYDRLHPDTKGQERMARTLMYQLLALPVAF
# Assay: as §1
# Type: ADME
# Set-up: dose 2 uM
# Settings: 2 µM
row,Bacterial Biotransformation,Structure (SMILES)
1,Compound NOT metabolized,C#C[C@]1(OC(C)=O)CC[C@H]2[C@@H]3CCC4=CC(=O)CC[C@@H]4[C@H]3CC[C@@]21C [NORETHINDRONE ACETATE]
2,Compound NOT metabolized,COc1ccc([C@@H]2Sc3ccccc3N(CCN(C)C)C(=O)[C@@H]2OC(C)=O)cc1 [DILTIAZEM]

# Biological target: T5, Lipolytic enzyme, G-D-S-L family (Bacteroides thetaiotaomicron, UniProt Q8A0C5)
# T5 sequence (Q8A0C5 whole entry): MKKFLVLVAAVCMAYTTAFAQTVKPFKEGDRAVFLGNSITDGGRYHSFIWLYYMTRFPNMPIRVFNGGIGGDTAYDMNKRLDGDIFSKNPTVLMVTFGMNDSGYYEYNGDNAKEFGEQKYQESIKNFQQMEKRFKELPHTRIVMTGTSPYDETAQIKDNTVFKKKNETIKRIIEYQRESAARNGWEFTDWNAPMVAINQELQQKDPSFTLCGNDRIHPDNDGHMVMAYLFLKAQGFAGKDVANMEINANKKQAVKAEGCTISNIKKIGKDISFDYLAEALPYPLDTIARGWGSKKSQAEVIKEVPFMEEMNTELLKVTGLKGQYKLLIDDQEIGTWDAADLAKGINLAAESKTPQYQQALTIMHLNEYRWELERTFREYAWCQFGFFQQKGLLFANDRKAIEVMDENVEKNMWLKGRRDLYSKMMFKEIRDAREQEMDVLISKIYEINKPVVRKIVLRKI
# Assay: as §1
# Type: ADME
# Set-up: dose 2 uM
# Settings: 2 µM
row,Bacterial Biotransformation,Structure (SMILES)
1,Compound NOT metabolized,C#C[C@]1(OC(C)=O)CC[C@H]2[C@@H]3CCC4=CC(=O)CC[C@@H]4[C@H]3CC[C@@]21C [NORETHINDRONE ACETATE]
2,Compound metabolized,COc1ccc([C@@H]2Sc3ccccc3N(CCN(C)C)C(=O)[C@@H]2OC(C)=O)cc1 [DILTIAZEM]
3,Compound metabolized,CC(=O)OCC(=O)[C@@]1(OC(C)=O)[C@@H](C)C[C@H]2[C@@H]3C[C@H](F)C4=CC(=O)C=C[C@]4(C)[C@@]3(F)[C@@H](O)C[C@@]21C [DIFLORASONE DIACETATE]

# Biological target: T6, Lipolytic enzyme, G-D-S-L family (Bacteroides thetaiotaomicron, UniProt Q8A0E6)
# T6 sequence (Q8A0E6 whole entry): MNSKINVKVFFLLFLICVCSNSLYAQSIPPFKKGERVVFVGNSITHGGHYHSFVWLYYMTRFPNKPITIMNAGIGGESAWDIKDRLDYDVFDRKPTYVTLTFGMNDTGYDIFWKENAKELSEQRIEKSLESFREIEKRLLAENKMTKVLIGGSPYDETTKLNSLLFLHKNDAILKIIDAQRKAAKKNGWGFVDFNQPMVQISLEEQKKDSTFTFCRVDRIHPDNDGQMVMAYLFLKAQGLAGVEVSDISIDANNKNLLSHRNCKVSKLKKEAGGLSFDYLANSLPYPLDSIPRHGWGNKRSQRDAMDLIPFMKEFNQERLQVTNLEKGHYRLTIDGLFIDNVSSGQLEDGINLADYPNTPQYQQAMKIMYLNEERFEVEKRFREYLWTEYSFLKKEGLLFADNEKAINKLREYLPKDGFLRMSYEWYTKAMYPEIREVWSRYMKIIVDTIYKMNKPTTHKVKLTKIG
# Assay: as §1
# Type: ADME
# Set-up: dose 2 uM
# Settings: 2 µM
row,Bacterial Biotransformation,Structure (SMILES)
1,Compound NOT metabolized,C#C[C@]1(OC(C)=O)CC[C@H]2[C@@H]3CCC4=CC(=O)CC[C@@H]4[C@H]3CC[C@@]21C [NORETHINDRONE ACETATE]
2,Compound NOT metabolized,COc1ccc([C@@H]2Sc3ccccc3N(CCN(C)C)C(=O)[C@@H]2OC(C)=O)cc1 [DILTIAZEM]
3,Compound NOT metabolized,CC(=O)OCC(=O)[C@@]1(OC(C)=O)[C@@H](C)C[C@H]2[C@@H]3C[C@H](F)C4=CC(=O)C=C[C@]4(C)[C@@]3(F)[C@@H](O)C[C@@]21C [DIFLORASONE DIACETATE]

# Biological target: T7, NADH dehydrogenase/NAD(P)H nitroreductase (Bacteroides thetaiotaomicron, UniProt Q8A8L9)
# T7 sequence (Q8A8L9 whole entry): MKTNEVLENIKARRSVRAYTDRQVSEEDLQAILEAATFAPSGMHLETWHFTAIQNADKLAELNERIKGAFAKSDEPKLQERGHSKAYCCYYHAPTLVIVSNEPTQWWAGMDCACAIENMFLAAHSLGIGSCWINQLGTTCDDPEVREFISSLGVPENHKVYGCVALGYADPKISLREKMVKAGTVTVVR
# Assay: as §1
# Type: ADME
# Set-up: dose 2 uM
# Settings: 2 µM
row,Bacterial Biotransformation,Structure (SMILES)
1,Compound NOT metabolized,C#C[C@]1(OC(C)=O)CC[C@H]2[C@@H]3CCC4=CC(=O)CC[C@@H]4[C@H]3CC[C@@]21C [NORETHINDRONE ACETATE]
2,Compound NOT metabolized,COc1ccc([C@@H]2Sc3ccccc3N(CCN(C)C)C(=O)[C@@H]2OC(C)=O)cc1 [DILTIAZEM]
3,Compound NOT metabolized,CC(=O)OCC(=O)[C@@]1(OC(C)=O)[C@@H](C)C[C@H]2[C@@H]3C[C@H](F)C4=CC(=O)C=C[C@]4(C)[C@@]3(F)[C@@H](O)C[C@@]21C [DIFLORASONE DIACETATE]

# Biological target: T8, Nitroreductase (Bacteroides thetaiotaomicron, UniProt Q8A911)
# T8 sequence (Q8A911 whole entry): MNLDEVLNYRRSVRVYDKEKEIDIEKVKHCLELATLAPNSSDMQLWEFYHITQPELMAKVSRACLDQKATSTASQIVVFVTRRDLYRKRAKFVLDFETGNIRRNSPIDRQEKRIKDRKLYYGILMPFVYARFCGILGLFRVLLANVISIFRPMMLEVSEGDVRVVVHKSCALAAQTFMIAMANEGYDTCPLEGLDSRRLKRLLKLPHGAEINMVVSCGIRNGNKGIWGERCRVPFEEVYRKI
# Assay: as §1
# Type: ADME
# Set-up: dose 2 uM
# Settings: 2 µM
row,Bacterial Biotransformation,Structure (SMILES)
1,Compound NOT metabolized,C#C[C@]1(OC(C)=O)CC[C@H]2[C@@H]3CCC4=CC(=O)CC[C@@H]4[C@H]3CC[C@@]21C [NORETHINDRONE ACETATE]
2,Compound NOT metabolized,COc1ccc([C@@H]2Sc3ccccc3N(CCN(C)C)C(=O)[C@@H]2OC(C)=O)cc1 [DILTIAZEM]
3,Compound NOT metabolized,CC(=O)OCC(=O)[C@@]1(OC(C)=O)[C@@H](C)C[C@H]2[C@@H]3C[C@H](F)C4=CC(=O)C=C[C@]4(C)[C@@]3(F)[C@@H](O)C[C@@]21C [DIFLORASONE DIACETATE]
